Earlier results as cited in patent US20030203004A1, “Compositions comprising short and long chain fatty acids and methods of their use for the management of body weight” (priority 2002, published 2003).

Experiments:
[1] = rats; jejunally infused neat, 0.2 mL/hr for seven hours
[2] = rats
[3] = humans; sodium propionate included in bread; attributed to delayed gastric emptying rate

| Compound | total daily caloric intake [1] | effect on gastric emptying [2] | satiety [3] |
| --- | --- | --- | --- |
| CCCCC/C=C\C/C=C\CCCCCCCC(=O)O [linoleic acid] | significantly reduce | – | – |
| CCCCCCCC/C=C\CCCCCCCC(=O)O [oleic acid] | significantly reduce | – | – |
| CCC(=O)[O-].[Na+] [sodium propionate] | – | no effect | induction of satiety |
